Measurements taken from patent US20260265227A1, “AMIDE PRODRUGS AND USES THEREOF” (Autobahn Therapeutics, Inc., priority 2022, published 2026).

Molecular target: T1, recombinant human FAAH (rhFAAH) (Homo sapiens, UniProt O00519)
T1 construct: purchased Cayman Chemical (Ann Arbor, MI, USA)
T1 sequence (O00519 1-579): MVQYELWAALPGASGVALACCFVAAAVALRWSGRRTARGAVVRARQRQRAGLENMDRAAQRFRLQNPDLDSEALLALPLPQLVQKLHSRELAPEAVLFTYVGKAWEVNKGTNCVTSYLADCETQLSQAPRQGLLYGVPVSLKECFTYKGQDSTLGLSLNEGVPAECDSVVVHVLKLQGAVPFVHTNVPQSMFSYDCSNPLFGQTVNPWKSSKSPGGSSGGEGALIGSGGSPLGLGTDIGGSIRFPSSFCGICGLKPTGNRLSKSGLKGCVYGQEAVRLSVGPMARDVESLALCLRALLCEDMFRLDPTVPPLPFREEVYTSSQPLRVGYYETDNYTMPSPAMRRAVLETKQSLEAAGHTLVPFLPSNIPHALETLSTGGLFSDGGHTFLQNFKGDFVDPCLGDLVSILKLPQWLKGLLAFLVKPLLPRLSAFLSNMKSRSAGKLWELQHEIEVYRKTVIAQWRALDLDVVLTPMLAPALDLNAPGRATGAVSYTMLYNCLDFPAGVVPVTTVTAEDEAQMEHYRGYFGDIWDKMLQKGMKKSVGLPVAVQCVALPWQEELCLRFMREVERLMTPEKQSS
Assay: FAAH Substrate Evaluation (formation of acid metabolite from amide prodrug)
Assay type: biochemical
Conditions: 0.5 ng/μL rhFAAH, 1 μM test compound, Tris-EDTA buffer pH 8.0, 0.1% BSA, room temperature, 0-60 minutes, LC-MS/MS
Method: Purified recombinant human FAAH (rhFAAH) was purchased from Cayman Chemical (Ann Arbor, MI, USA). The total volume for each incubation was 400 μL containing a final 0.5 ng/μL rhFAAH, 1 μM test compound, 1.25% ethanol or 1 μM PF-3845 (FAAH inhibitor), and 0.1% bovine serum albumin in Tris-EDTA buffer at pH 8.0). The positive control was LL-341001. The incubation was conducted at the room temperature. At 0, 5, 15, 30 and 60 minutes, an aliquot of 30 μL reaction mixtures was removed and mixed with 300 μL acetonitrile containing 5 ng/mL terfenadine and 10 ng/ml tolbutamide as internal standards to quench the reaction. The resulting mixture was centrifuged at 4000 rpm, 4° C. for 15 minutes, and 100 μL supernatant was ready for LC-MS/MS analysis to measure the formation of acid metabolite.
Acquity Ultra Performance LC system from Waters was used for sample analysis. The chromatography was performed on a reverse phase Kinetex 2.6 μm C18 column, 2.1×30 mm, 100 Å. The mobile phase A comprised of 0.1% formic acid in water and mobile phase B comprised of 0.1% formic acid in acetonitrile with a 2-min run time at the flow rate of 0.8 mL/min for the acid metabolite from positive control or a 1.5 min run time at the flow rate of 0.9 mL/min for the acid metabolite of test compounds. The mass spectrometer (API-5500 and API Q Trap 4000 Applied Biosystems/MDS SCIEX Instruments, Framingham, MA, USA) was operated under ESI positive or negative ion MRM mode.
The formation of acid metabolite was monitored and quantified using one calibration point of 1 μM. The observed rate constant (ke) for the acid metabolite formation was calculated by plotting the metabolite concentration versus time of incubation with the slope being ke and is shown in Table 1.

C[C@@H](CO)NC(=O)C1CN(CC2=Cc3ccc(OCCCC(F)(F)F)cc3C[C@@H]2C)C1 [Compound 2, N—((S)-1-hydroxypropan-2-yl)-1-(((S)-3-methyl-6-(4,4,4-trifluorobutoxy)-3,4-dihydronaphthalen-2-yl)methyl)azetidine-3-carboxamide]
ke (observed rate constant for the acid metabolite formation): B (ke is less than 1.0 and more than 0)

C[C@H]1Cc2cc(OCCCC(F)(F)F)ccc2C=C1CN1CC(C(=O)Nc2cncnc2)C1 [Compound 3, (S)-1-((3-methyl-6-(4,4,4-trifluorobutoxy)-3,4-dihydronaphthalen-2-yl)methyl)-N-(pyrimidin-5-yl)azetidine-3-carboxamide]
ke (observed rate constant for the acid metabolite formation): A (ke is more than or equal to 1.0)

C[C@H]1Cc2cc(OCCCC(F)(F)F)ccc2C=C1CN1CC(C(=O)Nc2ccnnc2)C1 [Compound 4, (S)-1-((3-methyl-6-(4,4,4-trifluorobutoxy)-3,4-dihydronaphthalen-2-yl)methyl)-N-(pyridazin-4-yl)azetidine-3-carboxamide]
ke (observed rate constant for the acid metabolite formation): A (ke is more than or equal to 1.0)

COCCNC(=O)C1CN(CC2=Cc3ccc(OCCCC(F)(F)F)cc3C[C@@H]2C)C1 [Compound 5, (S)—N-(2-methoxyethyl)-1-((3-methyl-6-(4,4,4-trifluorobutoxy)-3,4-dihydronaphthalen-2-yl)methyl)azetidine-3-carboxamide]
ke (observed rate constant for the acid metabolite formation): A (ke is more than or equal to 1.0)

C[C@H]1Cc2cc(OCCCC(F)(F)F)ccc2C=C1CN1CC(C(=O)NCC(C)(C)C)C1 [Compound 6, (S)-1-((3-methyl-6-(4,4,4-trifluorobutoxy)-3,4-dihydronaphthalen-2-yl)methyl)-N-neopentylazetidine-3-carboxamide]
ke (observed rate constant for the acid metabolite formation): B (ke is less than 1.0 and more than 0)

CC(C)CNC(=O)C1CN(CC2=Cc3ccc(OCCCC(F)(F)F)cc3C[C@@H]2C)C1 [Compound 7, (S)—N-isobutyl-1-((3-methyl-6-(4,4,4-trifluorobutoxy)-3,4-dihydronaphthalen-2-yl)methyl)azetidine-3-carboxamide]
ke (observed rate constant for the acid metabolite formation): A (ke is more than or equal to 1.0)

CC[C@@H](C)NC(=O)C1CN(CC2=Cc3ccc(OCCCC(F)(F)F)cc3C[C@@H]2C)C1 [Compound 8, N—((R)-sec-butyl)-1-(((S)-3-methyl-6-(4,4,4-trifluorobutoxy)-3,4-dihydronaphthalen-2-yl)methyl)azetidine-3-carboxamide]
ke (observed rate constant for the acid metabolite formation): A (ke is more than or equal to 1.0)

C[C@H]1Cc2cc(OCCCC(F)(F)F)ccc2C=C1CN1CC(C(=O)N(C)CC(C)(C)C)C1 [Compound 9, (S)—N-methyl-1-((3-methyl-6-(4,4,4-trifluorobutoxy)-3,4-dihydronaphthalen-2-yl)methyl)-N-neopentylazetidine-3-carboxamide]
ke (observed rate constant for the acid metabolite formation): C (ke is 0)

CCCNC(=O)C1CN(CC2=Cc3ccc(OCCCC(F)(F)F)cc3C[C@@H]2C)C1 [Compound 10, (S)-1-((3-methyl-6-(4,4,4-trifluorobutoxy)-3,4-dihydronaphthalen-2-yl)methyl)-N-propylazetidine-3-carboxamide]
ke (observed rate constant for the acid metabolite formation): A (ke is more than or equal to 1.0)

C[C@H]1Cc2cc(OCCCC(F)(F)F)ccc2C=C1CN1CC(C(=O)N(C)C)C1 [Compound 11, (S)—N,N-dimethyl-1-((3-methyl-6-(4,4,4-trifluorobutoxy)-3,4-dihydronaphthalen-2-yl)methyl)azetidine-3-carboxamide]
ke (observed rate constant for the acid metabolite formation): B (ke is less than 1.0 and more than 0)

CNC(=O)C1CN(CC2=Cc3ccc(OCCCC(F)(F)F)cc3C[C@@H]2C)C1 [Compound 12, (S)—N-methyl-1-((3-methyl-6-(4,4,4-trifluorobutoxy)-3,4-dihydronaphthalen-2-yl)methyl)azetidine-3-carboxamide]
ke (observed rate constant for the acid metabolite formation): B (ke is less than 1.0 and more than 0)

C[C@H]1Cc2cc(OCCCC(F)(F)F)ccc2C=C1CN1CC(C(=O)Nc2cccnc2)C1 [Compound 13, (S)-1-((3-methyl-6-(4,4,4-trifluorobutoxy)-3,4-dihydronaphthalen-2-yl)methyl)-N-(pyridin-3-yl)azetidine-3-carboxamide]
ke (observed rate constant for the acid metabolite formation): A (ke is more than or equal to 1.0)

C[C@H](CO)NC(=O)C1CN(CC2=Cc3ccc(OCCCC(F)(F)F)cc3C[C@@H]2C)C1 [Compound 14, N—((R)-1-hydroxypropan-2-yl)-1-(((S)-3-methyl-6-(4,4,4-trifluorobutoxy)-3,4-dihydronaphthalen-2-yl)methyl)azetidine-3-carboxamide]
ke (observed rate constant for the acid metabolite formation): B (ke is less than 1.0 and more than 0)

C[C@H](O)CNC(=O)C1CN(CC2=Cc3ccc(OCCCC(F)(F)F)cc3C[C@@H]2C)C1 [Compound 15, N—((S)-2-hydroxypropyl)-1-(((S)-3-methyl-6-(4,4,4-trifluorobutoxy)-3,4-dihydronaphthalen-2-yl)methyl)azetidine-3-carboxamide]
ke (observed rate constant for the acid metabolite formation): B (ke is less than 1.0 and more than 0)

CCCN(C)C(=O)C1CN(CC2=Cc3ccc(OCCCC(F)(F)F)cc3C[C@@H]2C)C1 [Compound 16, (S)—N-methyl-1-((3-methyl-6-(4,4,4-trifluorobutoxy)-3,4-dihydronaphthalen-2-yl)methyl)-N-propylazetidine-3-carboxamide]
ke (observed rate constant for the acid metabolite formation): C (ke is 0)

CC[C@H](C)NC(=O)C1CN(CC2=Cc3ccc(OCCCC(F)(F)F)cc3C[C@@H]2C)C1 [Compound 17, N—((S)-sec-butyl)-1-(((S)-3-methyl-6-(4,4,4-trifluorobutoxy)-3,4-dihydronaphthalen-2-yl)methyl)azetidine-3-carboxamide]
ke (observed rate constant for the acid metabolite formation): B (ke is less than 1.0 and more than 0)

COC[C@H](C)NC(=O)C1CN(CC2=Cc3ccc(OCCCC(F)(F)F)cc3C[C@@H]2C)C1 [Compound 18, N—((S)-1-methoxypropan-2-yl)-1-(((S)-3-methyl-6-(4,4,4-trifluorobutoxy)-3,4-dihydronaphthalen-2-yl)methyl)azetidine-3-carboxamide]
ke (observed rate constant for the acid metabolite formation): B (ke is less than 1.0 and more than 0)

C[C@H]1Cc2cc(OCCCC(F)(F)F)ccc2C=C1CN1CC(C(=O)NCC2CC2)C1 [Compound 19, (S)—N-(cyclopropylmethyl)-1-((3-methyl-6-(4,4,4-trifluorobutoxy)-3,4-dihydronaphthalen-2-yl)methyl)azetidine-3-carboxamide]
ke (observed rate constant for the acid metabolite formation): A (ke is more than or equal to 1.0)

C[C@H]1Cc2cc(OCCCC(F)(F)F)ccc2C=C1CN1CC(C(=O)NC2CC2)C1 [Compound 20, (S)—N-cyclopropyl-1-((3-methyl-6-(4,4,4-trifluorobutoxy)-3,4-dihydronaphthalen-2-yl)methyl)azetidine-3-carboxamide]
ke (observed rate constant for the acid metabolite formation): A (ke is more than or equal to 1.0)

C[C@@H](O)CNC(=O)C1CN(CC2=Cc3ccc(OCCCC(F)(F)F)cc3C[C@@H]2C)C1 [Compound 21, N—((R)-2-hydroxypropyl)-1-(((S)-3-methyl-6-(4,4,4-trifluorobutoxy)-3,4-dihydronaphthalen-2-yl)methyl)azetidine-3-carboxamide]
ke (observed rate constant for the acid metabolite formation): B (ke is less than 1.0 and more than 0)
